Nine compounds from paper PMC5215686 (Journal of medicinal chemistry, 2016) can be followed below.

Where “and” joins values, the source holds several entries; their conditions need not be identical. Equal entries are not always repeated.

In one data set the test system is HEK293T cells. Nature of the data set: Cytotoxicity, CellTiter-Glo. Type of data set: cell-based, human. The note with it: for Cytotoxicity (18 h) LD50: CellTiter-Glo, n = 4; for Cytotoxicity in words: 18 h, 100 μM. (In ATP-based viability assays light output follows the ATP content of the culture.)
Data set [1] has as its system NIH Swiss Webster mice. Nature of the data set: Rotarod assay. It counts as in vivo. The note with it: 4 r.p.m., 2 min; for Rotarod motorsensory behavior, 10 mg/kg: i.p. 10 mg/kg. Background: Falling from the rotarod earlier than controls is read as motor impairment.
The nature of data set [2]: Plasma and brain exposure after dosing in rats. It counts as in vivo, Sprague-Dawley rats. The note with it: rat; for Brain concentration of dosed ligand, 60 min / Brain concentration of dosed ligand, 120 min / Total Plasma Concentration, 15 min / Total Plasma Concentration, 30 min / Total Plasma Concentration, 60 min / Total Plasma Concentration, 120 min: p.o. 10 mg/kg; for Brain concentration of dosed ligand, 120 min / Total Plasma Concentration, 15 min / Total Plasma Concentration, 30 min / Total Plasma Concentration, 60 min / Total Plasma Concentration, 120 min: BQL: quantifiable limit < 12.2 nM; for Plasma exposure in words: i.v. (1 mg/kg) or p.o. (10 mg/kg).

Data set [3] relates to NIH Swiss Webster mice. Nature of the data set: Marble burying assay. Type of data set: in vivo.
In another data set the test system is Sprague-Dawley rats. Nature of the data set: Vogel conflict test. It counts as in vivo. The note with it: rat.
Data set [4] in a line: Rat pharmacokinetics i.v. and i.p., plasma and brain concentrations. It counts as in vivo, Sprague-Dawley rats.
A short description of data set [5]: Solubility by light scattering. It counts as physicochemical. The note with it: pH=7, by light scattering.

Regarding `C#Cc1ccc2c(c1)C(c1ccccc1F)=NCc1c(-c3cnco3)ncn1-2` [compound 10], in the data set on HEK293T cells, the “Cytotoxicity (18 h) LD50” value was 61.5 µM and 61.5 ± 10 µM. The “Rotarod motorsensory behavior, 10 mg/kg” value in the data set with NIH Swiss Webster mice [1] is “very minor impairment”.

Regarding `C#Cc1ccc2c(c1)C(c1ccccn1)=NCc1c(-c3nc(C)no3)ncn1-2` [compound 6], the Cytotoxicity in words result with HEK293T cells is on record as “non-toxic”. Moreover, the “Rotarod motorsensory behavior, 10 mg/kg” value in the data set on NIH Swiss Webster mice [1] is given as “very minor impairment”.

In the case of `C#Cc1ccc2c(c1)C(c1ccccn1)=NCc1c(-c3nc(CC)no3)ncn1-2` [compound 7], the Cytotoxicity in words result in the data set with HEK293T cells is reported as “non-toxic”. Moreover, the “Brain concentration of dosed ligand, 60 min” value in data set [2] is on record as “(60) 3090 nM”. In addition, in the data set on NIH Swiss Webster mice [3] (i.p. 10 mg/kg, 30 min prior to testing), the “Marble burying vs. vehicle, 10 mg/kg” value is on record as “significant reduction”. The “Sedation-like behavior observed in marble burying” value with NIH Swiss Webster mice [3] (i.p. 30 mg/kg) is on record as “weak signs of sedation”.

Turning to `CNC1=Nc2ccc(Cl)cc2C(c2ccccc2)=[N+]([O-])C1` [CDAP, chlordiazepoxide, reference compound], in the data set on Sprague-Dawley rats (20 mg/kg i.p.), the “Vogel conflict, response rate in the unpunished session, 20 mg/kg” value is recorded as “Neither”. Besides, the “Vogel conflict, punished response over control, 20 mg/kg” value in the data set with Sprague-Dawley rats (20 mg/kg i.p., P < 0.05) was determined as 330%.

With `C#Cc1ccc2c(c1)C(c1ccccn1)=NCc1c(C(=O)O)ncn1-2` [compound 4], the “Brain concentration of dosed ligand, 120 min” value (shortened to “Brain concentration … 120 min”) in data set [2] is “(120) BQL ^c”.

In the case of `[2H]C([2H])(C)OC(=O)c1ncn2c1CN=C(c1ccccn1)c1cc(C#C)ccc1-2` [compound 5], in data set [2], the “Plasma exposure in words” value is “poor”; the “Total Plasma Concentration, 15 min” value is “BQL ^c”; the “Total Plasma Concentration, 30 min” value is on record as “BQL ^c”; the “Total Plasma Concentration, 60 min” value was “BQL ^c”. Moreover, in data set [2], the “Brain concentration … 120 min” value is “(120) BQL ^c” and the “Total Plasma Concentration, 120 min” value is “BQL ^c”.

As for `C#Cc1ccc2c(c1)C(c1ccccn1)=NCc1c(-c3cnco3)ncn1-2` [compound 9, 5-(8-Ethynyl-6-(pyridin-2-yl)-4H-benzo[f]imidazo[1,5-a][1,4]diazepin-3-yl)oxazole], the Cytotoxicity in words result with HEK293T cells is recorded as “non-toxic”. Further, the “Brain concentration of dosed ligand, 60 min” value in data set [2] is reported as “(60) 3640 nM”. For the same compound, in the data set with NIH Swiss Webster mice [1] (i.p. 30 mg/kg), the “Rotarod failures, 30 mg/kg” value is on record as “zero failures” and the “Rotarod performance / ataxia, 30 mg/kg” value is listed as “did not significantly alter rotarod performance compared to vehicle”. Also, the “time of Cmax” value in data set [4] (10 mg/kg i.p.) came to 2.0 h. Further, in data set [4] (4 hours after 10 mg/kg i.p., free fraction x total concentration), the “Unbound Concentration (Cu), Brain” value worked out at 0.363 µM. In addition, in the data set with Sprague-Dawley rats (3 mg/kg i.p., 30 min pretreatment), the “Vogel conflict, punished response vs. control, 3 mg/kg” value was “no increase in response”. Further, the “Vogel conflict, increase of punished response rate over control, 30 mg/kg” value with Sprague-Dawley rats (30 mg/kg i.p., 30 min pretreatment) is on record as “about 220%”. For the same compound, in data set [5], the solubility entry was “good”.

Consider `C#Cc1ccc2c(c1)C(c1ccccc1)=NCc1c(-c3cnco3)ncn1-2` [compound 8], for which the “Cytotoxicity (18 h) LD50” value in the data set on HEK293T cells was 66.8 µM and 66.8 ± 9 µM.

In the case of `C#Cc1ccc2c(c1)C(c1ccccn1)=NCc1c(C(=O)OCC)ncn1-2` [compound 2], the Cytotoxicity in words entry in the data set on HEK293T cells is recorded as “non-toxic”. In data set [2], the “Plasma exposure in words” value is on record as “poor”; the “Total Plasma Concentration, 15 min” value was “BQL ^c”; the “Total Plasma Concentration, 30 min” value is on record as “BQL ^c”; the “Total Plasma Concentration, 60 min” value is “BQL ^c”. For the same compound, in data set [2], the “Brain concentration … 120 min” value is “(120) BQL ^c” and the “Total Plasma Concentration, 120 min” value is “BQL ^c”. The “Vogel conflict, difference from vehicle in words, 30 mg/kg” value in the data set with Sprague-Dawley rats (30 mg/kg i.p.) is recorded as “no discernable difference”.
